Source: patent US8927689B2, “Peptide nanostructures and methods of generating and using the same” (Ramot at Tel-Aviv University Ltd., priority 2002, dated 2015)
Non-standard residues stand in square brackets, D forms with d. Residues, ends and D or L forms follow the SMILES beside them.

Experiments:
[1] = Dissolving lyophilized peptide in 1,1,1,3,3,3-hexafluoro-2-propanol; type: physicochemical; conditions: 100 mg/ml
Method: Peptides (NH2-Phe-Phe-COOH, SEQ ID NO: 1) were purchased from Bachem (Budendorf, Switzerland). Freshly prepared stock solution was prepared by dissolving lyophilized form of the peptide in 1,1,1,3,3,3,-Hexafluoro-2-propanol at a concentration of 100 mg/ml. To avoid any pre-aggregation, fresh stock solution were prepared for each experiment.
Very concentrated peptide solution (i.e., 100 mg/ml) were prepared by dissolving the lyophilized peptide in 1,1,1,3,3,3 hexafluoro-2-propanol. […] Assembly into supramolecular structures was determined within minutes at the μM range, using dynamic light scattering analysis (data not shown).

[2] = biological target: Proteinase K (Parengyodontium album, UniProt P06873); test: Incubation of peptide nanotubes with Proteinase K, electron microscopy examination; type: in vitro ADME; conditions: one hour of incubation with 0.02 mg/ml of Proteinase K; compared with before incubation
Chain of Proteinase K (P06873 106-384): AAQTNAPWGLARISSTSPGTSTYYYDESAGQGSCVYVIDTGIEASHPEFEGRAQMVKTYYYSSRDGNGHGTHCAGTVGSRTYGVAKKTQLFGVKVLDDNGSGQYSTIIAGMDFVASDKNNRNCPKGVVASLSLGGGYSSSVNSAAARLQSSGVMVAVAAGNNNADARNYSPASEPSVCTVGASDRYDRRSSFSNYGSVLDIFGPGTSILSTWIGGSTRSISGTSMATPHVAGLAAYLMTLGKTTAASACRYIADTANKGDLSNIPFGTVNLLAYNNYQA
From the text: For other applications, such as the assembly of nanotube based biosensors or hollow tubing of nanofluidic circuits, enzymatically stable nanotubes are desired. To assemble such stable tubes, proteolytically stable building blocks based on the D-amino-acids analogue of the peptide, NH2-D-Phe-D-Phe-COOH (SEQ ID NO: 8) were used. This peptide formed nanotubes with the same structural features as the corresponding L-amino-acids peptide (FIG. 12a).

**Q.** With N[C@@H](Cc1ccccc1)C(=O)N[C@@H](Cc1ccccc1)C(=O)O [NH2-Phe-Phe-COOH] (H-Phe-Phe-OH) as the molecule, how does the “solubility in the organic solvent” value [1] read?
**A.** highly soluble

**Q.** And the “tubular structures observed by electron microscopy after proteolysis” value [2]?
**A.** no tubular structures were observed

**Q.** For N[C@H](Cc1ccccc1)C(=O)N[C@H](Cc1ccccc1)C(=O)O [D-Phe-D-Phe, NH2-D-Phe-D-Phe-COOH] (H-[dF]-[dF]-OH), which “tubular structures observed by electron microscopy after proteolysis” value [2] is on record?
**A.** no significant variation
